BigSolDB 2.1

O=C(O)c1ccccc1Nc1cccc(C(F)(F)F)c1
solubility (mole fraction)
Conditions	in DMSO	in ethanol	in ethylene glycol	in isopropanol	in methanol	in n-butanol	in propylene glycol	in sec-butanol	in transcutol	in water
298.2 K	0.226	0.0681	0.00767	0.0962	0.0439	0.119	0.0126	0.121	0.193	5.83e-07
303.2 K	0.241	0.0747	0.00856	0.105	0.048	0.13	0.0139	0.133	0.211	8.01e-07
308.2 K	0.256	0.0857	0.00975	0.116	0.0531	0.142	0.0153	0.144	0.229	1.02e-06
313.2 K	0.27	0.098	0.0107	0.128	0.0577	0.157	0.0167	0.16	0.251	1.28e-06
318.2 K	0.286	0.112	0.012	0.144	0.0629	0.177	0.0181	0.179	0.278	1.6e-06

Conditions	solubility (mole fraction)
in PEG-400, 298.2 K	0.0337
in PEG-400, 303.2 K	0.04
in PEG-400, 308.2 K	0.0469
in PEG-400, 313.2 K	0.054
in PEG-400, 318.2 K	0.0616
